Test results: BindingDB's records for doi:10.7270/Q2CZ35ND (Burnham Center For Chemical Genomics, 2011)

Biological target: DNA dC->dU-editing enzyme APOBEC-3A (Homo sapiens, UniProt P31941)
Assay: A3A deaminase inhibition for selectivity – biochemical, dose response (AID 504722)
Conditions: 25 °C

Sequence of DNA dC->dU-editing enzyme APOBEC-3A (P31941 whole entry): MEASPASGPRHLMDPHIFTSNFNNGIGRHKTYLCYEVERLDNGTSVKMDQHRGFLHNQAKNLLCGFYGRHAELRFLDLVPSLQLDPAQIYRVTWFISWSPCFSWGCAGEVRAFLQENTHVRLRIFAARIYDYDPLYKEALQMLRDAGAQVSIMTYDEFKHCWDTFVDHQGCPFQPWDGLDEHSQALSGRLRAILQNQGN

Compound | IC50
CCOc1ccc(-n2c(O)cc(Sc3nnc(-c4ccccc4)[nH]3)c2O)cc1 [MLS000765380] | > 100 µM
OCC12C=CC(O1)c1c2c(O)n(-c2ccccc2-c2ccccc2)c1O (stereo not drawn) [7-(hydroxymethyl)-2-(2-phenylphenyl)-4,7a-dihydro-3aH-octahydro-1H-4,7-epoxyisoindole-1,3-dione] | > 100 µM
COc1ccc(-n2c(O)cc(Sc3nnc(-c4ccccc4)[nH]3)c2O)cc1 [1-(4-methoxyphenyl)-3-[(5-phenyl-1H-1,2,4-triazol-3-yl)thio]pyrrolidine-2,5-dione] | > 100 µM
